# Measured values: patent US9994528B2, “Certain amino-pyridines and amino-triazines, compositions thereof, and methods for their use” (Cytokinetics, Inc., priority 2010, dated 2018)
# System: rabbit skeletal myofibrils (approximately 90% fast fibers)
# Experiment: Activation of fast skeletal myofibrils (PUMA coupled-enzyme ATPase assay)
# Assay type: biochemical
# Conditions: AC1.4 = concentration at which the compound increased the enzymatic activity by 40%; myofibril suspension at calcium level pCa25; PM12 buffer pH 6.8
# Procedure, shortened: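 Fast skeletal myofibrils from rabbit psoas muscle (roughly 90% fast fibers) were homogenized, washed with Triton X-100 to strip membranes, and frozen in 10% sucrose at −80° C. Their calcium-regulated ATPase activity was measured at pCa25 in PM12 buffer (12 mM Pipes, 2 mM MgCl2, 1 mM DTT, pH 6.8). A pyruvate kinase/lactate dehydrogenase system coupled ADP regeneration to NADH oxidation, read at 340 nm.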
row,Structure (SMILES),Mean AC1.4
1,"NC(=O)c1ccc(F)c(-c2cnc(NCC3(c4ccccn4)CCC3)nn2)c1 [4-fluoro-3-(3-{[(2-pyridylcyclobutyl)methyl]amino}(1,2,4-triazin-6-yl))benzamide]",B (B=1-10 uM)
2,"NC(=O)c1ccc(O)c(-c2cnc(NC[C@]3(c4ncccc4F)C[C@H](F)C3)nn2)c1 [3-[3-({[3-fluoro-1-(3-fluoro(2-pyridyl))cyclobulyl]methyl}amino)(1,2,4-triazin-6-yl)]-4-hydroxybenzamide]",A (A=<1 uM)
3,"CC(C)(Nc1ncc(-c2nccs2)nn1)c1ncccc1F [[1-(3-fluoro(2-pyridyl))-isopropyl](6-(1,3-thiazol-2-yl)(1,2,4-triazin-3-yl))amine]",D (D=>20 uM)
4,"CC(C)(Nc1ncc(-c2cc(NS(C)(=O)=O)ccc2F)nn1)c1ncccc1F [[4-fluoro-3-(3-{[1-(3-fluoro(2-pyridyl))-isopropyl]amino}(1,2,4-triazin-6-yl))phenyl](methylsulfonyl)amine]",C (C=10-20 uM)
5,"CC(C)(Nc1ncc(-c2ncc(CC(N)=O)s2)nn1)c1ncccc1F [2-[2-(3-{[1-(3-fluoro(2-pyridyl))-isopropyl]amino}-1,2,4-triazin-6-yl)-1,3-thiazol-5-yl]acetamide]",D (D=>20 uM)
6,c1ccc(-c2ccc(NC3(c4ccccc4)CCC3)nc2)cc1 [(5-phenyl(2-pyridyl))(phenylcyclobutyl)amine],B (B=1-10 uM)
7,"COC(=O)c1ccc(F)c(-c2cnc(NC(C)(C)c3cccc(S(C)(=O)=O)c3)nn2)c1 [methyl 4-fluoro-3-[3-({1-methyl-1-[3-(methylsulfonyl)phenyl]ethyl}amino)(1,2,4-triazin-6-yl)]benzoate]",D (D=>20 uM)
8,CC(=O)NCCc1ccc(NCC(C)(C)c2ccc(F)cc2)nc1 [N-[2-(6-{[2-(4-fluorophenyl)-2-methylpropyl]amino}-3-pyridyl)ethyl]acetamide],D (D=>20 uM)
9,CC(C)(CNc1cccc(Br)n1)c1ccc(F)cc1 [(6-bromo(2-pyridyl))[2-(4-fluorophenyl)-2-methylpropyl]amine],C (C=10-20 uM)
10,"COC(=O)c1ccc(-c2cnc(NC(C)(C)c3ncccc3F)nn2)c(F)c1 [methyl 3-fluoro-4-(3-{[1-(3-fluoro(2-pyridyl))-isopropyl]amino}(1,2,4-triazin-6-yl))benzoate]",D (D=>20 uM)
11,"NC(=O)c1ccc(F)c(-c2cnc(NCC3(c4ncccc4F)CCC3)nn2)c1 [4-fluoro-3-[3-({[(3-fluoro(2-pyridyl))cyclobutyl]methyl}amino)(1,2,4-triazin-6-yl)]benzamide]",A (A=<1 uM)
